Structures can show the parent of a compound that is named as a salt.
How the values were obtained:
P-gp [1] = conditions: KO mice, 30 min after [^11C]loperamide i.v.
Description: (§1) The most lipophilic radiometabolite was identified by radio-HPLC co-elution as N-desmethylloperamide (dLop) (data not shown).

P-gp [2] = test: P-gp function imaged with [^11C]dLop in monkeys, brain study; assay type: in vivo; conditions: naloxone 5 mg/kg or loperamide 1 mg/kg at 30 min after [^11C]dLop, P-gp blocked monkeys
Description: Displacement agents were given at 30 min after the radiotracer. A subset of monkeys also had arterial blood sampling (n=5) and [^15O]H2O PET scans (n=4) to measure the concentration of parent radiotracer in plasma and cerebral blood flow, respectively.

[3] = Plasma free fraction (fP) by ultracentrifugation; assay type: in vitro ADME; conditions: fP of [^11C]loperamide, monkey
P-gp [4] = test: PET imaging of [^11C]loperamide in monkey brain with P-gp inhibitors; conditions: for increase of brain activity after [^11C]loperamide: monkey; for increase of peak radioactivity in brain after [^11C]loperamide: inhibitor 8.0 mg/kg i.v. 30 min before radiotracer, monkey (FIG. 3)
Description: (§2) For tariquidar only a blockade scan was acquired and compared to the baseline scans of three other animals.
PET images were co-registered to a magnetic resonance image template of a monkey brain. Tomographic images were analyzed with PMOD 2.7 (pixel-wise modeling computer software; PMOD Group, Adliswil, Switzerland). Regions of interest were drawn on coronal slices. Decay-corrected radioactivity was expressed as % standardized uptake value (% SUV), which normalizes for injected activity and body weight. % SUV=(% injected activity per cm3 brain)×(g body weight).

[5] = Arterial plasma parent input function and plasma free fraction, [^11C]loperamide with tariquidar; assay type: in vivo; conditions: monkey
Description: Arterial plasma parent input function and plasma free fraction (fl) were determined in monkey.

P-gp [6] = conditions: iv, 8 mg/kg
P-gp [7] = conditions: Ekins et al. 2002 (DCPQ); Martin et al. 1999 (tariquidar); cited from earlier work
P-gp [8] = test: Monkey brain PET with [^11C]loperamide, baseline and tariquidar (additional experiments)
[9] = Plasma analysis of [^11C]loperamide in nonhuman primates (arterial plasma, radio-HPLC); conditions: for time at which parent radiotracer was 50% of total plasma activity: monkey arterial plasma
Description: as §2

P-gp [10] = conditions: DCPQ 16 mg/kg i.v., monkeys
Description: The brains of three P-gp KO and three WT mice were scanned for 90 min after administration of [^11C]dLop (˜580 μCi, i.v.). Mice injected with [^11C]dLop (600 μCi, i.v.) were also sacrificed at 30 min, and acetonitrile extracts of blood and brain analyzed with reverse phase HPLC.

P-gp [11] = test: PET imaging of [^11C]dLop in monkey brain, baseline and P-gp blocked with DCPQ; conditions: for increase of regional radioactivity concentration relative to baseline: DCPQ 16 mg/kg i.v. before [^11C]dLop, averaged 25-50 min
Description: Scatter and attenuation correction were applied. Images were analyzed with PMOD. Regions of interest were drawn on coronal slices for eight brain regions (frontal cortex, anterior cingulate, temporal cortex, parietal cortex, hippocampus, occipital cortex, putamen and cerebellum). Activity was decay-corrected to the time of injection and expressed as % SUV. […]
Time-radioactivity data were collected for the same eight brain regions as previously described.

P-gp [12] = biological target: P-gp (Mus musculus, UniProt P21447); conditions: 30 min after [^11C]loperamide i.v.
P-gp (Mus musculus, UniProt P21447), sequence (P21447 whole entry): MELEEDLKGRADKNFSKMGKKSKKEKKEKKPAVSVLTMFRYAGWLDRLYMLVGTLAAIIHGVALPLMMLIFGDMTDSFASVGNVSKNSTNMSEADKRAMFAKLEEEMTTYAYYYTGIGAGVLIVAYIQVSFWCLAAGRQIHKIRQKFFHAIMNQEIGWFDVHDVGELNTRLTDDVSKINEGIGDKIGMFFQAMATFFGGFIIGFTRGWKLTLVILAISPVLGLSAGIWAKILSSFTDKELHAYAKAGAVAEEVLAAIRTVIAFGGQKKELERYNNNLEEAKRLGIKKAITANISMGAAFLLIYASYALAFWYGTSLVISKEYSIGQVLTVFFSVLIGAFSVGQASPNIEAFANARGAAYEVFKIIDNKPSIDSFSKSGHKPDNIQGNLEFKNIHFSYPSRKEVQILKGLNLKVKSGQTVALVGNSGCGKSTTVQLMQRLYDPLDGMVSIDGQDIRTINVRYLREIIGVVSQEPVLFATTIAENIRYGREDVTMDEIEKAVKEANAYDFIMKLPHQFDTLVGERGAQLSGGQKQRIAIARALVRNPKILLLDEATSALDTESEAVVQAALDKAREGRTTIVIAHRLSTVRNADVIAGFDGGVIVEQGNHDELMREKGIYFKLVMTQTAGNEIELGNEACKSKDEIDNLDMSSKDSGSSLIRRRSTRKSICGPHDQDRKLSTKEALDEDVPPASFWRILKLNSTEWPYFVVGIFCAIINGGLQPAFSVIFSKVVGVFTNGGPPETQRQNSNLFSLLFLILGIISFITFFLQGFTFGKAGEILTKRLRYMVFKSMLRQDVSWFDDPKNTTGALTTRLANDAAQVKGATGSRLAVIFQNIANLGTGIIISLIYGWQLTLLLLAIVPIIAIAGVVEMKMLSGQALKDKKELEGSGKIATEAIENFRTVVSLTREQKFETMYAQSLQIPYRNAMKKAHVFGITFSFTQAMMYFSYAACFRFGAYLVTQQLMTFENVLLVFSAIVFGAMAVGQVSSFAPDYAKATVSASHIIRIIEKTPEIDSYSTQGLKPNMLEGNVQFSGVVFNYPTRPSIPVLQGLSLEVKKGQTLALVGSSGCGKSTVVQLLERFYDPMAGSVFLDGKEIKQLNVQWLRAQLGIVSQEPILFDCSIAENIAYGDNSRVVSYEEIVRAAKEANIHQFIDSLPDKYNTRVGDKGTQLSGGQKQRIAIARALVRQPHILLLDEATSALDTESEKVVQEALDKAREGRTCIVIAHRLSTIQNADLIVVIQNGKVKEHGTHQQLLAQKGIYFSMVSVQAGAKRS
Description: as §1

δ opiate receptor = δ opiate receptor (Homo sapiens, UniProt P41143); test: In vitro receptor binding, cloned human δ opiate receptor
δ opiate receptor, sequence (P41143 whole entry): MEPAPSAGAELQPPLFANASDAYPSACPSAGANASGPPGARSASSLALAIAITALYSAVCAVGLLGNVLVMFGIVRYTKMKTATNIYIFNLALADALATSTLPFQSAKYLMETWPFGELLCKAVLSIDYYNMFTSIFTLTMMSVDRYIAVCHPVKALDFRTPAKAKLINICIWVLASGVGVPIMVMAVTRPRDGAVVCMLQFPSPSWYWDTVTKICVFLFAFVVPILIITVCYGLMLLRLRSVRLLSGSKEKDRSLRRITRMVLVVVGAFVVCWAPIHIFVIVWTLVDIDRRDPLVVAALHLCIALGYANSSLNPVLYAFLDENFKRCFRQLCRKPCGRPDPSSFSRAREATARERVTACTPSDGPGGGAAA
Description: (§3) Detailed binding protocols are available on the web site for The National Institute of Mental Health Psychoactive Drug Screening Program.

κ opiate receptor = κ opiate receptor (Homo sapiens, UniProt P41145); test: biochemical; conditions: agonist radiotracer ^3H-U69,593; mean ± SD of four competitive binding experiments
κ opiate receptor, sequence (P41145 whole entry): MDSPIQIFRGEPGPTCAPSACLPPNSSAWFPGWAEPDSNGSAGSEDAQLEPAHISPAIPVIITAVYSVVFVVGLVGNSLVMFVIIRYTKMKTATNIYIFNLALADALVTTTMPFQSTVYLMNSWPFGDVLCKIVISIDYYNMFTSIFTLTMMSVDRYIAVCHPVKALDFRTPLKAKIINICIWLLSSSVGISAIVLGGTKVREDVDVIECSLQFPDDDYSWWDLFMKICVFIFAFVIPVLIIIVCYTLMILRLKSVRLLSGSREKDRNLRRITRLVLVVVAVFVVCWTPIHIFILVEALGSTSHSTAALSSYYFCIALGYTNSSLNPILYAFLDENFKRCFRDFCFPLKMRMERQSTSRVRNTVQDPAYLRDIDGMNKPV
Description: as §3

μ opiate receptor = μ opiate receptor (Homo sapiens, UniProt P35372); assay type: binding
μ opiate receptor, sequence (P35372 whole entry): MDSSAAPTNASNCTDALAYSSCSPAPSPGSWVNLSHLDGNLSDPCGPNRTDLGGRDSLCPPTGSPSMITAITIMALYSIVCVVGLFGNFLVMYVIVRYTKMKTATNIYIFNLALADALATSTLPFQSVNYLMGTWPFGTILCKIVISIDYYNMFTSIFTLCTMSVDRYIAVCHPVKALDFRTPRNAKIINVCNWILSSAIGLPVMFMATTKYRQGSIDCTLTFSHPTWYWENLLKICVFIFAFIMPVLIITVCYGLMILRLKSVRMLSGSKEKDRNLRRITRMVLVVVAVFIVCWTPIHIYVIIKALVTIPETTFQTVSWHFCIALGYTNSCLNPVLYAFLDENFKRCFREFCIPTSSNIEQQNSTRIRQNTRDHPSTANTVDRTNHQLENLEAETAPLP
Description: as §3

P-gp [13] = system: P-gp
Description: Serial dynamic images were acquired for 100 min, with frames of 6×20 s, 5×1 min, 4×2 min, 3×5 min, 3×10 min, and 2×20 min. […] The small mouse brain causes little scatter and attenuation of the gamma emissions from carbon-11, and, thus, no correction for scatter or attenuation was performed.

P-gp [14] = conditions: P-gp knockout mice, 30 min after injection of [^11C]loperamide
Description: At 30 min after radiotracer injection, anticoagulated blood was removed by cardiac puncture, and the brain was harvested. Plasma was separated from whole blood by centrifugation at 1,800 g for 1 min. […] The homogenates were measured in the y-counter to calculate the % recovery of radioactivity into the acetonitrile extracts. The homogenates were then centrifuged at 10,000×g for 1 min. […] The eluate was monitored with an in-line flow-through Na(Tl) scintillation detector (Bioscan, Washington D.C., USA). Plasma parent and radiometabolite concentrations were calculated as the product of the radio-HPLC fraction of interest and the total plasma radioactivity concentration (dpm/mL).

CYP3A4 = conditions: mouse, in vivo
Description: Ex vivo studies were performed in wild-type (WT) and P-gp knockout (KO) mice. […] Whole brain and plasma sample radioactivity were measured with γ-counting and HPLC analysis.

[15] = inhibitor 8 mg/kg i.v. 30 min before radiotracer

## CN(C)C(=O)C(CCN1CCC(O)(c2ccc(Cl)cc2)CC1)(c1ccccc1)c1ccccc1 [Loperamide, 4-(p-chlorophenyl)-4-hydroxy-N,N-dimethyl-α,α-diphenyl-1-piperidinebutyramide hydrochloride, reference compound]
P-gp [1]
  Brain composition: 63%
P-gp [2]
  displacement of the radiotracer from brain: Neither naloxone nor loperamide caused any apparent displacement

## COc1cc2c(cc1OC)CN(CCc1ccc(NC(=O)c3cc(OC)c(OC)cc3NC(=O)c3cnc4ccccc4c3)cc1)CC2 [Tariquidar]
[3]; inhibitor 8.0 mg/kg
  Plasma free fraction (fP), Δ relative to baseline: negligibly affected
P-gp [4]; [15]
  increase of brain activity after [^11C]loperamide: equipotent with DCPQ
P-gp [4]
  increase of peak radioactivity in brain after [^11C]loperamide: 3.7 fold
P-gp [4]; inhibitor 8 mg/kg i.v. 30 min before radiotracer, listed as tariquidar
  increase of brain activity after [^11C]loperamide: ~3.5 fold
[5]; rhesus, in vivo
  time over which parent plasma composition decreased to 50%: 20 min
P-gp [6]
  brain activity after P-gp inhibition: 146 % standard uptake value
P-gp [7]
  affinity to the P-gp: 5.1 nM
P-gp [8]; tariquidar 8 mg/kg i.v.
  increase of brain activity after [^11C]loperamide: about 3.7 fold

## Cl.Cl.Cl.O[C@@H](COc1cccc2ncccc12)CN1CCN(C2c3ccccc3C3C(c4ccccc42)C3(Cl)Cl)CC1 (stereo partly drawn) [DCPQ, (2R)-anti-5-{3-[4-(10,11-dichloromethanodibenzosuber-5-yl)piperazin-1-yl]-2-hydroxypropoxy}quinoline trihydrochloride]
[9]; DCPQ 8 mg/kg i.v. vs baseline, monkey
  increase in plasma exposure of [^11C]loperamide: 16%
[3]; inhibitor 1.0 mg/kg
  Plasma free fraction (fP), P-gp Inhibition: 5.7 ± 0.3
[3]; inhibitor 3.0 mg/kg
  Plasma free fraction (fP), P-gp Inhibition: 1.4 ± 0.5
[3]; inhibitor 8.0 mg/kg
  Plasma free fraction (fP), P-gp Inhibition: 4.4 ± 1.4
P-gp [10]
  increase of brain radioactivity after [^11C]dLop: more than 7 fold
P-gp [4]; inhibitor 1 mg/kg i.v. 30 min before radiotracer
  increase of brain activity after [^11C]loperamide: minimal effect
P-gp [4]; inhibitor 3 mg/kg i.v. 30 min before radiotracer
  increase of brain activity after [^11C]loperamide: ~2.5 fold
P-gp [4]; [15]
  increase of brain activity after [^11C]loperamide: ~3.5 fold
P-gp [4]
  increase of peak radioactivity in brain after [^11C]loperamide: 3.7 fold
P-gp [11]; DCPQ 0-16 mg/kg i.v. before [^11C]dLop, one monkey
  dependence of regional brain radioactivity uptake on dose: increased almost linearly with dose of DCPQ
P-gp [11]; DCPQ 8 mg/kg i.v. before [^11C]dLop, monkey
  ratio of maximal brain radioactivity to that in the baseline experiment: about five
P-gp [11]; DCPQ 8 mg/kg or 16 mg/kg i.v. before [^11C]dLop, monkey
  effect on uptake of radioactivity into pituitary: unaffected
P-gp [11]; cerebellum, monkey
  increase of regional radioactivity concentration relative to baseline: thirteen-fold
P-gp [11]; frontal cortex, monkey
  increase of regional radioactivity concentration relative to baseline: seven-fold
P-gp [7]
  affinity to the P-gp: 5.3 nM

## CNC(=O)C(CCN1CCC(O)(c2ccc(Cl)cc2)CC1)(c1ccccc1)c1ccccc1 [dLop, 4-(4-(4-Chlorophenyl)-4-hydroxypiperidin-1-yl)-2,2-diphenyl-N-methyl-butanamide]
P-gp [1]
  Brain composition: 21%
P-gp [12]; WT mice
  Brain composition: 4.3%
P-gp [12]; brain
  concentration increase over control (KO vs WT): 59 fold
δ opiate receptor
  Ki: 328 ± 22 nM
κ opiate receptor
  Ki: 73 ± 7 nM
μ opiate receptor
  Ki: 0.56 ± 0.05 nM
P-gp [11]; given 30 min after [^11C]dLop to DCPQ-treated monkey (naloxone 5 mg/kg i.v.; loperamide or dLop 1 mg/kg i.v.)
  effect on washout of radioactivity from brain regions: no discernible effect

## C=CCN1CC[C@]23c4c5ccc(O)c4O[C@H]2C(=O)CC[C@@]3(O)[C@H]1C5 [naloxone, reference compound]
P-gp [2]
  displacement of the radiotracer from brain: Neither naloxone nor loperamide caused any apparent displacement

## CN([11CH3])C(=O)C(CCN1CCC(O)(c2ccc(Cl)cc2)CC1)(c1ccccc1)c1ccccc1 [[^11C]loperamide, 4-(4-(4-chlorophenyl)-4-hydroxypiperidin-1-yl)-N,N-dimethyl-2,2-diphenylbutanamide]
P-gp [13]; cerebellum
  maximal activity in cerebellum, knockout vs wild type mice (PET): 1.9 fold
P-gp [13]; forebrain
  maximal activity in forebrain, knockout vs wild type mice (PET): 2.7 fold
P-gp [13]; whole brains
  brain activity, knockout vs wild type mice (PET): about three-fold
[9]; after DCPQ 8 mg/kg i.v.
  time at which parent radiotracer was 50% of total plasma activity: 20 min
[9]; baseline
  time at which parent radiotracer was 50% of total plasma activity: 17 min
[9]; baseline, listed as [^11C]Loperamide
  time at which parent radiotracer was 50% of total plasma activity: about 20 min
P-gp [4]; three monkeys, 120 min scan
  brain uptake under baseline conditions: ~40 % SUV
[5]; baseline
  time over which parent plasma composition decreased to 50%: 17 min
P-gp [14]
  share of brain radioactivity after [^11C]loperamide: ~50%
P-gp [8]; baseline
  brain activity, baseline: 40 % standard uptake value

## CC(=O)N1CCN(c2ccc(OCC3COC(Cn4ccnc4)(c4ccc(Cl)cc4Cl)O3)cc2)CC1 (stereo not shown) [ketoconazole]
CYP3A4
  decrease of radiometabolite dLop in plasma: ~70%
  increase of [^11C]dLop concentration in plasma: ~240%
  increase of [^11C]loperamide concentration in plasma: ~100%

— patent US7989630B2, “Radiotracers for imaging P-glycoprotein function” (National Institutes of Health Represented by the Secretary …, priority 2008, dated 2011)
